Reference: patent publication US20210069147A1, “PHARMACEUTICAL COMBINATION AND USES THEREOF” (BIONOMICS LIMITED, priority 2015, published 2021)

How the values were obtained:
CT26 murine colon tumor = test: Efficacy in syngeneic CT26 murine colon tumor model; type: in vivo, mouse (Balb/c); conditions: Day 11; Balb/c mice with s.c. CT26 tumors; BNC105 10 mg/kg Days 1 and 8; anti-CTLA4 (Clone 9D9) 10 mg/kg i.p. Days 2, 5, 9
Protocol: The present inventors conducted a separate study to determine the efficacy of BNC105 in combination with the immune-oncology therapeutic antibody anti-CTLA4 in the syngeneic CT26 murine colon tumor model. BNC105 (10 mg/kg) was administered on Days 1 and 8, the anti-CTLA4 antibody (Clone 9D9) was administered at 10 mg/kg i.p. on Days 2, 5, and 9. Balb/c mice were inoculated subcutaneously with C1′26 cells. When tumors reached an average volume of approximately 135 mm3 animals were randomised into 5 groups of 10 mice per group.
1. Saline+PBS control 2. Saline+IgG2b isotype control, antibody 3. BNC105P+IgG2b isotype control antibody 4. Saline+anti-CTLA4 antibody 5. BNC105P+anti-CTLA4 antibody
The in-life part of this study was completed on Day 12 of the treatment period due to tumor sizes in the control groups reaching ethical limits. Tumors were collected for both FAGS analysis and for histology. FAGS analysis and histology arc currently in progress and aim to identify changes of immune T-cell populations following treatment.

IL-12 subunit p40 = test: Plasma biomarker analysis, Phase II mesothelioma trial (Multi-Analyte Profile); type: in vivo, human; conditions: patients, BNC105 16 mg/m2 monotherapy
Protocol: FIG. 4. Changes in levels of IL-12 p40 and II: 10 following administration with BNC105. Phase II Mesothelioma trial BNC105 (16 mg/m2) number of patients=19. Blood draws were pre-specified and optional. Patients receiving BNC105 alone received blood draws prior to BNC105 administration and 3 hours following administration. Plasma samples were used to determine exploratory analytes using Multi-Analyte Profile (MAP) technology (Myriad RBM). Graph showing % change from baseline. Percent change was calculated as analyse plasma concentration (post-baseline)/baseline*100. Mean±SEM shown on graph.
The balance between pro-inflammatory and anti-inflammatory signals provided by different immune cell populations is crucial for normal physiology and the suppression of cancer development. By altering this homeostasis an opportunity is provided for the immune system to alter the way it responds. Biomarker analysis on patient samples was conducted from a Phase II BNC105 monotherapy mesothelioma trial. […] The immune-modulatory cytokine IL-12 subunit p40, a key member of the IL-12 cytokine family, has emerged as a potent inducer of antitumor immunity. IL-12 subunit p40 is secreted by activated macrophages and serves as an essential inducer of Th1 cells development.

[1] = system: tumor vasculature (Renca); test: Vascular stain perfusion in murine orthotopic model of Renal Cancer (Renca); type: in vivo; conditions: perfusion of a vascular stain
From the text: In a murine orthotopic model of Renal Cancer (Renca) the present inventors have shown using perfusion of a vascular stain that tumor blood vessels arc obliterated after BNC105 treatment compared to normal tissue which remains unaffected.

IFNγ = test: Tumoral levels of IFNγ; type: in vivo; conditions: 16 mg/kg BNC105 versus saline (FIG. 3)
Protocol: FIG. 3. Tumoral levels of IFNγ in animals administered with saline or 16 mg/kg BNC105.
(§1) BNC105 primes the immunogenic potential of a tumor with increased tumoral IFNγ content compared to control treated animals (FIG. 3). IFNγ is secreted from CD4+ Th1, CD8+ and Th0 cells and activated NK cells.

CD3+/CD8+ cells = test: Tumoral CD3+/CD8+ cells; conditions: in vivo
From the text: as §1

[2] = system: tumor infiltrating macrophages (CD11b+); test: Number of tumor infiltrating macrophages; type: in vivo; conditions: after treatment, monotherapy and combination (FIG. 5)
From the text: FIG. 5. Reduction in the number of tumor infiltrating macrophages (CD11b+) after treatment with BNC105 (monotherapy and combination).
This reduction would dramatically change the immune environment potentially releasing the immune dampening effect of macrophage subsets.

MC38 murine colon tumor = test: Efficacy in syngeneic MC38 murine colon tumor model; type: in vivo, mouse (C57/BL6); conditions: Day 17; C57/BL6 mice with s.c. MC38 tumors; BNC105P 10 mg/kg i.v. Day 1, 8, 15; anti-PD1 (Clone RMP1-14) 3.5 mg/kg i.p. Day 1, 4, 8, 12, 16
Protocol: The present inventors conducted a study to determine the efficacy of BNC105 in combination with the immunotherapeutic anti-PD1 antibody in the syngeneic MC38 murine colon tumor model. BNC105P was administered at 10 mg/kg i.v., on Day 1, 8 and 15, anti-PD1 antibody (Clone RMP1-14) was administered at 3.5 mg/kg i.p. on Day 1, 4, 8, 12 and 16. C57/BL6 mice were inoculated subcutaneously with MC38 cells. When tumors reached a volume of approximately 100-150 mm3 animals were randomised into groups of 10 mice per group.
1. Saline+PBS control 2. Saline+IgG2a isotypc control antibody 3. BNC105P+IgG2a isotype control antibody 4. Saline+anti-PD1 antibody 5. BNC105P+anti-PD1 antibody
The in-life pan of this study was completed on Day 18 of the treatment period due to tumor size in the control groups reaching the ethical limit. Tumors and blood were collected for FACS analysis and also tumors were collected for histology. FACS analysis and histology is currently under way and is aimed at identifying changes of immune T-cell populations following treatment.

Row | Compound | tumor growth inhibition (CT26 murine colon tumor) [%] | plasma IL-12 subunit p40 post administration (IL-12 subunit p40; 3 hours following administration versus baseline) | plasma IL-12 subunit p40 at Day 8 post dosing (IL-12 subunit p40; Day 8) | normal tissue vasculature after treatment [1] | tumor blood vessels after treatment [1] | tumoral IFNγ content compared to control treated animals (IFNγ) | change in tumoral CD3+/CD8+ cells (CD3+/CD8+ cells) | number of tumor infiltrating macrophages (CD11b+) [2] | tumor growth inhibition (TGI) (MC38 murine colon tumor) [%]
1 | COc1cc(C(=O)c2c(C)oc3c(O)c(OC)ccc23)cc(OC)c1OC [BNC105, 2-methyl-7-hydroxy-3-(3,4,5-trimethoxybenzoyl)-6-methoxybenzofuran] | 27 | significantly increases | remains elevated | unaffected | obliterated | increased | No change | significant reduction | 40
2 | COc1cc(C(=O)c2c(C)oc3c(OP(=O)([O-])[O-])c(OC)ccc23)cc(OC)c1OC.[Na+].[Na+] [BNC105P, di sodium [6-methoxy-2-methyl-3-(3,4,5-trimethoxybenzoyl)-1-benzofuran-7-yl] phosphate] | 27 |  |  |  |  |  |  |  | 40
